The subject of test [1] is cancer cachexia, Yoshida hepatoma AH-130 cells. The test is described as follows: Cachexia model (Yoshida hepatoma AH-130 inoculated rats). It counts as in vivo, Male Wistar Han rats. The settings on record: rat, daily 0.17 or 1.7 μg/kg/d, vs saline placebo. Here is the method:
Male Wistar Han rats aged 8 weeks with an approximate weight of 200 g were inoculated intraperitoneally with 10^8 Yoshida hepatoma. AH-130 cells. Body weight and body composition were assessed before tumor inoculation and on the day of sacrifice. Quality of life indicators (spontaneous activity, food and water intake) were measured on day 0 and on day 10/11. Tumor cells were counted at the last day of the study. Rats were treated daily with either (1) low dose (0.17 μg/kg/d) RYLLEAKEAENITTG (SEQ ID NO:1), (2) high dose (1.7 μg/kg/d) RYLLEAKEAENITTG (SEQ ID NO:1), or (3) or normal saline (placebo) (n=22). Body composition of animals was analyzed using an EchoMRI-700 (Echo Medical Systems, Houston, Tex., USA). The analysis of the body structures was based on Nuclear Magnetic Resonance. Spontaneous activity was measured by an infrared scanner over 24 hours using Supermex activity monitoring system (Muromachi Kikai Co., LTD., Tokyo, Japan).

Test [2] has as its system histamine induced wheal (edema by intradermal histamine injection). The test is described as follows: Histamine induced wheal formation. It counts as in vivo, Sprague-Dawley rats. To be noted: rat, 30 mcg/kg intravenously shortly after intradermal histamine, area at fifteen minutes, vs placebo; FIG. 2. The procedure: Under isofiurane anesthesia, 12 Sprague-Dawley rats' abdomens were shaved and depilated. Each rat was then injected intravenously (via internal jugular) with a dilute solution or Evans Blue (30 mg/ml in saline, 1 mg/kg bw). After 5 minutes, 6 small doses of histamine (histamine diphosphate, 20 microliters administered intradermally) in a rectangular pattern on each rat's abdomen. After fifteen minutes, when the wheal reaches its maximum size the wheal is photographed and the blister area was determined by digital planimetry. To test the efficacy of a peptide, RYLLEAKEAENITTG (SEQ ID NO:1) or placebo, was administered to the rats intravenously shortly after the histamine injection, at a dose of 30 mcg/kg.

In the next test the test system is sciatic nerve injury. The test is described as follows: Sciatic nerve injury assay (static sciatic index from toe spread). The format is in vivo, Sprague-Dawley rats. The settings on record: rat, 50 mcg/kg into the caudal vein after nerve stretch injury, toe splaying over next four days, vs PBS; FIG. 1. Here is the method:
RYLLEAKEAENITTG (SECS ID NO:1) was tested for tissue protective activity using a sciatic nerve injury assay, Sprague-Dawley rats (250-300 grams) (six per group, including control) were anesthetized using isoflurane. The rat was then placed on a homeothermic blanket to ensure that the core temperature of the rat was maintained at 35-37° C. during the operation. Core temperature was monitored via a rectal probe. The right sciatic nerve of the anesthetized rat was exposed at mid thigh through a quadriceps muscle dissection; a 2 cm incision with a 15 blade scalpel was made through the skin parallel and over the quadriceps muscle and the quadriceps muscle was cut to expose the sciatic nerve using a pair of dissecting scissors. […]
Over the next four days the rear toe splaying of the rats was determined by placing the rat in an acrylic tube with a diameter of 30 cm on the scanning surface of a digital scanner. […] From the scans, the Toe Spread (the distance between the ball of the first toe and the ball of the fifth toe) and the Intermediate Toe Spread (the distance between the ball of the second toe and the ball of the fourth toe were measured. The static sciatic index (SSI) was then computed in accordance with S. Erbayraktar et al., 2003, Proc. Natl. Acad Sci USA 100, 6741-6746 (hereby incorporated by reference in its entirety) and statistical analysis performed.

As for “RYLLEAKEAENITTG (peptide that have tissue protective activity) [tissue protective peptide of 15 amino acids derived from erythropoietin, made by Fmoc solid phase synthesis]”, the “loss of lean mass” value in test [1] (EchoMRI, FIG. 3C) is reported as “reduced loss of lean mass”. Further, in test [1] (infrared scanner over 24 hours, FIG. 3D), the “physical activity (spontaneous activity)” value is given as “increased physical activity”. Also, the weight loss result in test [1] (FIG. 3A) was “reduced weight loss”. Further, the epididymal fat entry in test [1] (FIG. 3B) was “preserved epididymal fat”. Moreover, the wheal area entry in test [2] is given as “significantly reduced”. In the test with sciatic nerve injury, the “sciatic nerve injury (static sciatic index, SSI)” value is listed as “reduces sciatic nerve injury”.

The record behind these values is patent US20210107942A1, “TISSUE PROTECTIVE PEPTIDES AND PEPTIDE ANALOGS FOR PREVENTING AND TREATING DISEASES AND DISORDERS ASSOCIATED WITH TISSUE DAMAGE” (Araim Pharmaceuticals, Inc., priority 2013, published 2021).
